Series [1] relates to MDA-MB 231 (breast cancer) cells. Put plainly: MTT antiproliferative assay, MDA-MB 231. The following applies: Homo sapiens, MDA-MB-231, 48 h, mean ± SEM of three experiments, read-out: IC50 values against selected human cancer cell lines, MDA-MB 231. Format: cell-based. The text has this:
(§1) A panel of four cancer cell lines used for testing the in-vitro cytotoxicity include: MDA-MB-231 derived from human breast adenocarcinoma cells (ATCC No HTB-26), HeLa derived from human cervical cancer cells (ATCC No. CCL-2), A549 derived from human alveolar adenocarcinoma epithelial cells (ATCC No. CCL-185) and IMR-32 derived from human neuroblastoma cell line (ATCC No CCL-127), with a normal cell line HEK-293 (human embryonic kidney cell). These cancer cell lines were obtained from the American Type Culture Collection (ATCC), Manassas, VA, USA, and stored before use.
(§2) The cytotoxicity of synthesized compounds 4A–V were determined in triplicates by 3-[4,5-dimethylthiazol-2-yl]-2,5-diphenyltetrazolium bromide (MTT) assay[51]^,[52]. The pale yellow coloured tetrazolium salt (MTT) reduced to a dark blue water-insoluble formazan by metabolically active cells and the product was measured quantitatively after solubility in DMSO. The absorbance of the soluble formazan is directly proportional to the number of viable cells. A panel of four cancer cell lines were used for testing the in-vitro cytotoxicity. These cell lines were grown in Dulbecco’s modified Eagle’s medium (DMEM) containing non-essential amino acids and 10% FBS. All the cells were maintained under humidified conditions of 5% CO2 atmosphere at 37 °C in a CO2 incubator (Model Galaxy 170S, Eppendorf, USA). The 96-well micro titre plates were incubated for 24 h prior to addition of the experimental compounds. Cells were treated with vehicle alone (DMSO) or compounds (drugs (1 µg/mL) were dissolved in 100 µL DMSO previously) at different concentrations (0.1, 1, 10 and 25 µM) of test compounds for 48 h. The assay was completed with the addition of MTT (5%, 10µL) and incubated for 60 min at 37 °C. The supernatant was aspirated and plates were air dried and the MTT-formazan crystals were dissolved in 100 µL of DMSO.
(§3) The optical density (O.D) was measured at 570 nm using TECAN multimode reader (Infinite® M200Pro, Tecan, Switzerland). The percent cell viability of each treated well of 96 well plate was calculated based on test wells relative to control wells. Doxorubicin was used as positive controls for comparison purpose and 1% DMSO as a vehicle control. The cytotoxicity of test compounds was expressed in terms of IC50 value, which is defined as a concentration of compound that produced 50% reduction absorbance relative to control, and the absorbance at 570 nm wavelength was recorded.
(In general: Tetrazolium assays rely on reduction of a dye to a coloured formazan, in cell work by metabolically active cells.)

For series [2], the system named is HeLa (cervical cancer) cells. Put plainly: MTT antiproliferative assay, HeLa. Format: cell-based. To be noted: Homo sapiens, HeLa, 48 h, mean ± SEM of three experiments, read-out: IC50 values against selected human cancer cell lines, HeLa.
From the text: as §1, §2, §3

The next series has as its system A549 (lung cancer) cells. Put plainly: MTT antiproliferative assay, A549. The class given is cell-based. The following applies: Homo sapiens, 48 h, mean ± SEM of three experiments, read-out: IC50 values against selected human cancer cell lines, A549. As to the method:
These cancer cell lines were obtained from the American Type Culture Collection (ATCC), Manassas, VA, USA, and stored before use.
The pale yellow coloured tetrazolium salt (MTT) reduced to a dark blue water-insoluble formazan by metabolically active cells and the product was measured quantitatively after solubility in DMSO. The absorbance of the soluble formazan is directly proportional to the number of viable cells. A panel of four cancer cell lines were used for testing the in-vitro cytotoxicity. These cell lines were grown in Dulbecco’s modified Eagle’s medium (DMEM) containing non-essential amino acids and 10% FBS. […] The 96-well micro titre plates were incubated for 24 h prior to addition of the experimental compounds. […] The supernatant was aspirated and plates were air dried and the MTT-formazan crystals were dissolved in 100 µL of DMSO.
The optical density (O.D) was measured at 570 nm using TECAN multimode reader (Infinite® M200Pro, Tecan, Switzerland). The percent cell viability of each treated well of 96 well plate was calculated based on test wells relative to control wells. Doxorubicin was used as positive controls for comparison purpose and 1% DMSO as a vehicle control.

For series [3], the system named is IMR-32 (neuroblast cancer) cells. Put plainly: MTT antiproliferative assay, IMR-32. Format: cell-based. The following applies: Homo sapiens, IMR-32, 48 h, mean ± SEM of three experiments, read-out: IC50 values against selected human cancer cell lines, IMR32.
From the text: as §1, §2, §3

Series [4] deals with HEK-293 (human embryonic kidney normal cell line). The series is described as follows: MTT cytotoxicity assay, normal cell line HEK-293. Format: cell-based. To be noted: Homo sapiens, HEK293, 48 h, normal cell line.
From the text: as §1, §2, §3

Structures are written as SMILES. Bounds are passed on as bounds.

By melting point is commonly meant the temperature, or range, at which the solid turns liquid. One may read the IC50 as the point on the concentration scale where inhibition reaches its midpoint. As for `COc1cc(/C(=C\S(=O)(=O)c2ccc(C)cc2)c2ccccc2)cc(OC)c1OC` [Compound 4A, (Z)-1,2,3-trimethoxy-5-(1-phenyl-2-tosylvinyl)benzene], the melting point is 139 to 141 °C. In addition, the IC50 in series [1] was found to be 19.4 ± 1.72 µM. The half-inhibitory concentration (IC50) in series [2] turned out to be 9.4 ± 0.72 µM. Besides, in the series with A549 (lung cancer) cells, the IC50 is 6.39 ± 0.68 µM. Further, in series [3], the IC50 came out at 6.4 ± 0.82 µM. The IC50 in series [4] was over 25 µM.

`COc1ccc(/C(=C/S(=O)(=O)c2ccc(C)cc2)c2cc(OC)c(OC)c(OC)c2)cc1` [Compound 4B]: the melting point fell in the range of 124 to 126 °C. The IC50 in series [1] came to 14.6 ± 0.85 µM. In addition, the 50% inhibitory concentration (IC50) in series [2] worked out at 8.59 ± 0.58 µM. The IC50 with A549 (lung cancer) cells worked out at 4.68 ± 0.46 µM. In series [3], the IC50 turned out to be 4.1 ± 0.96 µM. In series [4], this compound registered an IC50 of over 25 µM.

The compound `COc1ccc(/C(=C/S(=O)(=O)c2ccc(C)cc2)c2cc(OC)c(OC)c(OC)c2)c(OC)c1` [Compound 4C] displayed a melting point of 107 to 109 °C. Besides, the half-maximal inhibitory concentration (IC50) in series [1] came to 13.6 ± 1.56 µM. Further, the 50% inhibitory concentration (IC50) in series [2] is 10.6 ± 0.56 µM. Moreover, the IC50 in the series with A549 (lung cancer) cells came to 7.04 ± 0.08 µM. For the same compound, the IC50 in series [3] was determined as 7.04 ± 0.83 µM. The compound also showed an IC50 in series [4] of over 25 µM.

For `COc1ccc(/C(=C/S(=O)(=O)c2ccc(C)cc2)c2cc(OC)c(OC)c(OC)c2)cc1OC` [Compound 4D], the melting point was 173 to 175 °C. The IC50 in series [1] is 14.9 ± 1.54 µM. In addition, the half-maximal inhibitory concentration (IC50) in series [2] was determined as 10.9 ± 0.54 µM. Besides, in the series on A549 (lung cancer) cells, the IC50 stood at 5.52 ± 0.06 µM. Besides, the IC50 in series [3] is 6.25 ± 0.03 µM. The same compound returned an IC50 in series [4] of over 25 µM.

The compound `COc1cc(OC)cc(/C(=C/S(=O)(=O)c2ccc(C)cc2)c2cc(OC)c(OC)c(OC)c2)c1` [Compound 4E] gave a melting point of 163 to 165 °C. Moreover, in series [1], the IC50 came out at 14.1 ± 1.51 µM. Also, the IC50 in series [2] is 11.1 ± 0.51 µM. Moreover, the IC50 with A549 (lung cancer) cells amounted to 5.32 ± 0.92 µM. For the same compound, in series [3], the IC50 stood at 6.23 ± 0.09 µM. In addition, the 50% inhibitory concentration (IC50) in series [4] was over 25 µM.

In the case of `COc1cc(/C(=C\S(=O)(=O)c2ccc(C)cc2)c2ccc(F)cc2)cc(OC)c1OC` [Compound 4G], the melting point lay in the range of 141 to 143 °C. The IC50 in series [1] was 13.2 ± 1.49 µM. Moreover, the IC50 in series [2] was 8.73 ± 0.49 µM. Further, the IC50 in the series on A549 (lung cancer) cells is 6.92 ± 0.65 µM. Besides, in series [3], the IC50 worked out at 7.29 ± 0.46 µM. The compound also displayed a half-inhibitory concentration (IC50) in series [4] of over 25 µM.

Turning to `COc1cc(/C(=C\S(=O)(=O)c2ccc(C)cc2)c2ccc(C(F)(F)F)cc2)cc(OC)c1OC` [Compound 4H], the melting point is 125 to 127 °C. Also, in series [1], the IC50 amounted to 15.9 ± 1.44 µM. Besides, in series [2], the 50% inhibitory concentration (IC50) was 9.62 ± 0.44 µM. In the series on A549 (lung cancer) cells, the IC50 came out at 6.84 ± 0.7 µM. In series [3], the IC50 was determined as 7.48 ± 0.13 µM. This compound came in with an IC50 in series [4] of over 25 µM.

With `COc1cc(/C(=C\S(=O)(=O)c2ccc(C)cc2)c2ccc(F)cc2F)cc(OC)c1OC` [Compound 4I], the melting point lay in the range of 113 to 115 °C. The IC50 in series [1] is 12.7 ± 0.4 µM. Also, in series [2], the IC50 was found to be 9.46 ± 0.4 µM. In the series with A549 (lung cancer) cells, the IC50 stood at 13.1 ± 0.86 µM. Also, the IC50 in series [3] was 15.1 ± 0.16 µM. Moreover, in series [4], the IC50 was over 25 µM.

Regarding `COc1cc(/C(=C\S(=O)(=O)c2ccc(C)cc2)c2ccc(F)c(F)c2)cc(OC)c1OC` [Compound 4J], the melting point fell in the range of 140 to 142 °C. In series [1], the IC50 stood at 13.1 ± 0.92 µM. Further, the IC50 in series [2] is 9.98 ± 0.42 µM. In the series on A549 (lung cancer) cells, the IC50 is 11.3 ± 0.83 µM. The IC50 in series [3] amounted to 12.03 ± 0.02 µM. In addition, the IC50 in series [4] was over 25 µM.

Compound `CCOc1ccc(F)c(/C(=C/S(=O)(=O)c2ccc(C)cc2)c2cc(OC)c(OC)c(OC)c2)c1` [Compound 4K] gave a melting point of 125 to 127 °C. For the same compound, the half-inhibitory concentration (IC50) in series [1] was 13.6 ± 0.89 µM. Moreover, the IC50 in series [2] amounted to 9.5 ± 0.49 µM. Further, the IC50 in the series on A549 (lung cancer) cells came to 7.02 ± 0.84 µM. In addition, the IC50 in series [3] was determined as 8.06 ± 0.09 µM. In series [4], the IC50 is over 25 µM.
